Data from the NIST ThermoML archive (doi:10.1016/j.tca.2004.11.013).
Numbers after ± are expanded uncertainties.

Legend:
[1] = Molar enthalpy of transition or fusion; details: Crystal; DSC
[2] = for viscosity: 298 K, moving piston; for viscosity / thermal conductivity / mass density: 101.33 kPa, Liquid; for thermal conductivity: hot wire; for mass density: 333.1 K, Vibrating tube method; for Normal melting temperature: Crystal
[3] = molar heat capacity at constant pressure; details: 101.33 kPa, Liquid, Small sample (50 mg) DSC

Compound | Molar enthalpy of transition or fusion [1] | viscosity [2] | thermal conductivity ([2]; 300 K) | thermal conductivity ([2]; 310 K) | thermal conductivity ([2]; 320 K) | thermal conductivity ([2]; 330 K) | mass density [2] | thermal conductivity ([2]; 340 K) | thermal conductivity ([2]; 350 K) | thermal conductivity ([2]; 360 K) | thermal conductivity ([2]; 370 K) | thermal conductivity ([2]; 380 K) | thermal conductivity ([2]; 390 K) | Normal melting temperature ([2]; DTA) | molar heat capacity at constant pressure ([3]; 323.15 K) | molar heat capacity at constant pressure ([3]; 348.15 K) | molar heat capacity at constant pressure ([3]; 373.15 K) | molar heat capacity at constant pressure ([3]; 398.15 K) | molar heat capacity at constant pressure ([3]; 423.15 K) | molar heat capacity at constant pressure ([3]; 448.15 K) | other results
CCC[n+]1ccn(C)c1C.O=S(=O)([N-]S(=O)(=O)C(F)(F)F)C(F)(F)F | 4.71 ± 1.91 kcal/mol | 90.05 ± 2.7 mPa·s | 0.13 ± 0.005 W/m/K | 0.13 ± 0.005 W/m/K | 0.129 ± 0.005 W/m/K | 0.129 ± 0.005 W/m/K | 1420.5 ± 0.8 kg/m3 | 0.128 ± 0.005 W/m/K | 0.128 ± 0.005 W/m/K | 0.127 ± 0.005 W/m/K | 0.127 ± 0.005 W/m/K | 0.126 ± 0.005 W/m/K | 0.126 ± 0.005 W/m/K | 11.29 ± 2.6 °C | 473.46 ± 190 J/K/mol | 487.72 ± 200 J/K/mol | 501.98 ± 200 J/K/mol | 515.4 ± 210 J/K/mol | 528.4 ± 210 J/K/mol | 540.98 ± 220 J/K/mol | molar heat capacity at constant pressure ([3]; 473.15 K): 553.14 ± 220 J/K/mol; molar heat capacity at constant pressure ([3]; 498.15 K): 564.47 ± 230 J/K/mol; molar heat capacity at constant pressure ([3]; 523.15 K): 575.79 ± 230 J/K/mol; molar heat capacity at constant pressure ([3]; 548.15 K): 586.69 ± 230 J/K/mol; molar heat capacity at constant pressure ([3]; 573.15 K): 597.18 ± 240 J/K/mol; molar heat capacity at constant pressure ([3]; 598.15 K): 607.24 ± 240 J/K/mol; molar heat capacity at constant pressure ([3]; 623.15 K): 616.89 ± 250 J/K/mol; molar heat capacity at constant pressure ([3]; 663.15 K): 631.15 ± 250 J/K/mol
CCCCn1cc[n+](C)c1.F[B-](F)(F)F [1-butyl-3-methylimidazolium tetrafluoroborate] | – | 119.78 ± 4.1 mPa·s | 0.186 ± 0.006 W/m/K | 0.185 ± 0.006 W/m/K | 0.184 ± 0.006 W/m/K | 0.184 ± 0.006 W/m/K | 1174.7 ± 0.7 kg/m3 | 0.183 ± 0.006 W/m/K | 0.183 ± 0.006 W/m/K | 0.182 ± 0.006 W/m/K | 0.181 ± 0.006 W/m/K | 0.181 ± 0.006 W/m/K | 0.18 ± 0.006 W/m/K | – | 341.75 ± 140 J/K/mol | 355.76 ± 140 J/K/mol | 367.74 ± 150 J/K/mol | 378.36 ± 150 J/K/mol | 386.95 ± 150 J/K/mol | 393.96 ± 160 J/K/mol | Glass transition temperature ([2]; Glass, DTA): -87.38 ± 2.6 °C; molar heat capacity at constant pressure ([3]; 223.15 K): 268.74 ± 110 J/K/mol; molar heat capacity at constant pressure ([3]; 248.15 K): 289.54 ± 120 J/K/mol; molar heat capacity at constant pressure ([3]; 273.15 K): 308.75 ± 120 J/K/mol; molar heat capacity at constant pressure ([3]; 298.15 K): 326.15 ± 130 J/K/mol; molar heat capacity at constant pressure ([3]; 473.15 K): 399.16 ± 160 J/K/mol; molar heat capacity at constant pressure ([3]; 498.15 K): 402.77 ± 160 J/K/mol; molar heat capacity at constant pressure ([3]; 523.15 K): 404.35 ± 160 J/K/mol; molar heat capacity at constant pressure ([3]; 548.15 K): 404.35 ± 160 J/K/mol; molar heat capacity at constant pressure ([3]; 573.15 K): 402.77 ± 160 J/K/mol
CCn1cc[n+](C)c1.F[B-](F)(F)F [1-ethyl-3-methylimidazolium tetrafluoroborate] | 2.28 ± 0.908 kcal/mol | 36.07 ± 0.75 mPa·s | 0.199 ± 0.006 W/m/K | 0.197 ± 0.006 W/m/K | 0.196 ± 0.006 W/m/K | 0.195 ± 0.006 W/m/K | 1252.6 ± 0.8 kg/m3 | 0.194 ± 0.006 W/m/K | 0.193 ± 0.006 W/m/K | 0.191 ± 0.006 W/m/K | 0.19 ± 0.006 W/m/K | 0.189 ± 0.006 W/m/K | 0.188 ± 0.006 W/m/K | 14.42 ± 1.1 °C | – | – | 257.95 ± 100 J/K/mol | – | – | – | molar heat capacity at constant pressure ([3]; 273.15 K): 244.49 ± 98 J/K/mol; molar heat capacity at constant pressure ([3]; 293.15 K): 250.04 ± 100 J/K/mol; molar heat capacity at constant pressure ([3]; 313.15 K): 254 ± 100 J/K/mol; molar heat capacity at constant pressure ([3]; 333.15 K): 256.77 ± 100 J/K/mol; molar heat capacity at constant pressure ([3]; 353.15 K): 258.15 ± 100 J/K/mol; molar heat capacity at constant pressure ([3]; 393.15 K): 256.57 ± 100 J/K/mol; molar heat capacity at constant pressure ([3]; 403.15 K): 255.18 ± 100 J/K/mol
